In patent US20130309224A1 (BOEHRINGER INGELHEIM INTERNATIONAL GMBH, priority 2012, published 2013):

Legend:
[1] = test system: human follicular lymphoma (DOHH2); assay: Example 4: DOHH2 follicular lymphoma xenograft, A2 with bendamustine, tumor volume; type: in vivo, C.B-17 scid mice
[2] = test system: Raji Burkitt lymphoma cells; assay: Apoptosis assay (Annexin V/PI staining, FACS) on Raji cells; type: cell-based; settings: 48 h, A2 10 μg/ml, AnnexinV positive cells corrected for background
[3] = Example 4: body weight as indicator of tolerability; settings: for tolerability / body weight loss (in words): A2 10 mg/kg, bendamustine 20 mg/kg i.p.
[4] = test system: Ramos Burkitt lymphoma cells; assay: Apoptosis assay (Annexin V/PI staining, FACS) on Ramos cells; type: cell-based, human; settings: 48 h, A2 10 μg/ml, AnnexinV positive cells corrected for background
DoHH2 tumor cells = assay: Example 2: DoHH2 human xenograft tumor model, A2 with bendamustine; type: in vivo, CB-17 SCID mice; settings: A2 10 mg/kg twice weekly, bendamustine 10 mg/kg twice weekly ip; compared to control treated animals
human CD37 = molecular target: T1, human CD37 (human, UniProt P11049 1-281, limits assumed); assay: not described (statement in the discussion of Example 3)
T1 sequence (looked up): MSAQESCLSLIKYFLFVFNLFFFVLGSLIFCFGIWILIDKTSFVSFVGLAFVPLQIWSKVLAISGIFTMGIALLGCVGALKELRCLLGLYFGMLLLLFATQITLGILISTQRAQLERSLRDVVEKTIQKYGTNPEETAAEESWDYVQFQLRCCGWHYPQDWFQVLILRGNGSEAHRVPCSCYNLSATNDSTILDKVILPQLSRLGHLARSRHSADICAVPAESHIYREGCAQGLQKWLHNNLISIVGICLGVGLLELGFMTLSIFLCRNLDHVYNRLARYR

mouse CD37 = molecular target: T2, mouse CD37 (mouse, UniProt Q61470 1-281, limits assumed); assay: as above
T2 sequence (looked up): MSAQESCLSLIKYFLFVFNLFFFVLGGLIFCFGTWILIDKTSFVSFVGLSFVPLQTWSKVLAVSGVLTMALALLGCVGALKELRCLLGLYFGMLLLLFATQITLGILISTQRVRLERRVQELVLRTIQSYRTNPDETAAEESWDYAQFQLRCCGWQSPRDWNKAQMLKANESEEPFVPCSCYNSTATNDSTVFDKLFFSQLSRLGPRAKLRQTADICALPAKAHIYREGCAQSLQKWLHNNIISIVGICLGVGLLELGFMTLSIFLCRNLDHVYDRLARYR

[5] = bendamustine concentration 400 μM

| Molecule | inhibition of DOHH2 tumor growth (in words) ([1]; A2 10 mg/kg, bendamustine 20 mg/kg i.p.) | CR [x/7] ([1]; complete tumor regressions, day 16) | tumors growth inhibited (of 7 treated) ([1]; day 16) [tumors] | TGI [%] ([1]; median, day 16, vs vehicle control, A2 10 mg/kg i.p. d1,d5,d8,d12,d15, bendamustine 20 mg/kg i.p. two injections) | PR [x/7] ([1]; partial tumor regressions, day 16) | % apoptotic cells ([2]; bendamustine concentration 200 μM) [%] | % apoptotic cells [2, 5] [%] | tolerability / body weight loss (in words) [3] | tolerability / body weight loss (in words) ([3]; listed as Bendamustine) | body weight loss in median within the first week of treatment ([3]; bendamustine i.p. day 2 and 6) | % apoptotic cells ([4]; bendamustine concentration 100 μM) [%] | % apoptotic cells [4, 5] [%] | anti-tumor effect (tumor growth retardation) (DoHH2 tumor cells) | binding result (human CD37) | binding result (mouse CD37) |
| --- | --- | --- | --- | --- | --- | --- | --- | --- | --- | --- | --- | --- | --- | --- | --- |
| Cn1c(CCCC(=O)O)nc2cc(N(CCCl)CCCl)ccc21 [bendamustine, 4-[5-[Bis(2-chloroethyl)amino]-1-methylbenzimidazol-2-yl]butanoic acid, reference compound] | significant inhibition of tumor growth | 0 | 7 | 57 | 0 | 10 | 13 | moderately tolerated | resulted in weight loss | up to 7.9% | 19 | 35 | significant anti-tumor effect | – | – |
| Antibody A2 (antibody, human IgG1, kappa, V domains shown, also called mAb A2; MAb A2) VH: AVQLQQSGPELEKPGASVKISCKASGYSFTGYNMNWVKQNNGKSLEWIGNIDPYYGGTTYNRKFKGKATLTVDKSSSTAYMQLKSLTSEDSAVYYCARSVGPMDYWGQGTSVTVSS VL: DIQMTQSPASLSASVGETVTITCRTSENVYSYLAWYQQKQGKSPQLLVSFAKTLAEGVPSRFSGSGSGTQFSLKISSLQPEDSGSYFCQHHSDNPWTFGGGTELEIKR | – | – | – | – | – | – | – | – | – | – | – | – | – | binds | no binding |
